Results: patent US20250381181A1, “CANCER TREATMENT AGENT INCLUDING MALT1 INHIBITING DRUG AS ACTIVE INGREDIENT” (ONO PHARMACEUTICAL CO., LTD., priority 2022, published 2025)

Legend:
[1] = system: Human CD79 mutation-positive diffuse large B-cell lymphoma cell line; experiment: Combination of Compound A and each anticancer agent, cell viability (Cell Counting Kit-8); details: combined treatment with Compound A (3, 10, 30 or 100 nmol/L); CD79 mutation-positive DLBCL; 6 days
Experimental: (§6) Human CD79 mutation-positive diffuse large B-cell lymphoma cell lines and human mantle cell lymphoma cell lines were used. The cells were subcultured using RPMI1640 containing 10% non-mobilized fetal bovine serum (hereinafter, the medium) under conditions of 5% CO2 and 37° C.
(§7) The cells suspended in the medium were seeded in 96 well plates at a density of 2500 or 5000 cells/100 μL per well. […] After completion of the culture, the number of surviving cells was measured using Cell Counting Kit-8 (DOJINDO) according to the procedure of the kit.

[2] = system: Human mantle cell lymphoma cell line; experiment: as above; details: combined treatment with Compound A (3, 10, 30 or 100 nmol/L), 6 days
Experimental: as §6, §7

[3] = system: Human CD79 mutation-positive DLBCL cell line; experiment: Combination of Compound A and Btk inhibitor or Bcl-2 inhibitor, cell viability (Cell Counting Kit-8); type: cell-based; details: combined treatment with Compound A (10, 30 or 100 nmol/L), 6 days
Description: (§1) Treatment concentrations of Compound A were 10, 30 or 100 nmol/L, and treatment concentrations of the Btk inhibitor and the Bcl-2 inhibitor were set between 0.3 to 300 nmol/L or 0.003 to 10 nmol/L, respectively.

Human MCL cell line = experiment: as above; type: cell-based; details: combined treatment with Compound A (10, 30 or 100 nmol/L), 6 days
Description: as §1

[4] = system: human CD79 mutation-positive diffuse large B-cell lymphoma cell line; experiment: Antitumor effect in mouse subcutaneous transplantation model; type: in vivo; details: orally for 21 days; Compound A 10 mg/kg twice a day, Ibrutinib 10 mg/kg once a day; subcutaneous tumor in NOG mice
Experimental: A human CD79 mutation-positive diffuse large B-cell lymphoma cell line was used. The cells were subcultured using Iscove's modified Dulbecco's medium containing 20% inactivated calf serum and 0.5 mmol/L Monothioglycerol under conditions of 5% CO2 and 37° C.
The cells were suspended in HBSS:Matrigel=1:1 and implanted subcutaneously in the abdomen of 7-week-old female NOG mice at 1×10^6 cells/mouse. The tumor volume was measured using a caliper, and calculated by a calculation formula of tumor volume=(major tumor diameter×minor tumor diameter×minor tumor diameter)/2. At the time when the tumor volume reached about 120 mm^3, grouping was performed into 4 groups of 6 mice per group. Compound A was orally administered at a dose of 10 mg/kg twice a day for 21 days, and Ibrutinib was orally administered at a dose of 10 mg/kg once a day for 21 days. Also, the combined administration group was orally administered with 10 mg/kg of Compound A and 10 mg/kg of ibrutinib. The control group was orally administered with a 0.5% methylcellulose solution. After grouping, tumor volume measurements were performed twice a week. T/C (%) was used as an index of the antitumor effect.
Regarding the amount of tumor volume change during the administration period of each group, the combined antitumor effect of Compound A and Ibrutinib was analyzed by a statistical method of two-way ANOVA of EZR (ver. 1.54) software.

[5] = system: Human CARD11 mutation-positive DLBCL cell line; experiment: Combination of Compound A and Bcl-2 inhibitor, cell viability (Cell Counting Kit-8); type: cell-based; details: combined treatment with Compound A (10, 30 or 100 nmol/L), 6 days
Description: as §1

[6] = system: Human CD79 mutation-positive diffuse large B-cell lymphoma cell line 2; experiment: Combined effect on cell viability, Compound A and Btk inhibitor (CellTiter-Glo, in vitro); type: cell-based; details: combined treatment with Compound A, 6 days of culture
Experimental: (§2) Using Ibrutinib as a Btk inhibitor, the combined effect on cell viability with Compound A was evaluated in vitro.
(§3) After 6 days of culture from the addition, the cell viability was evaluated as follows.
(§4) Cell viability was evaluated by each treatment by measuring intracellular adenosine triphosphate (ATP) using CellTiter-Glo. That is, 100 μL of CellTiter-Glo solution per well was added to each well and incubated at room temperature for 15 minutes, and then chemiluminescence was measured. The average value of each combination was calculated from the obtained data, and a concentration reaction curve of the cell viability of each drug alone or in combination was created with the luminescence intensity in cells treated with DMSO alone as 100%.
(§5) The half maximal inhibitory concentration (IC50) for each drug was determined using median effect analysis software CalcuSyn 2.0 (CalcuSyn, Inc).

[7] = system: Human CD79 mutation-positive diffuse large B-cell lymphoma cell line 1; experiment: as above; type: cell-based; details: combined treatment with Compound A
Experimental: as §2, §3, §4, §5

Compound	Combination index (CI) value, median [1]	Combination index (CI) value, median [2]	further results
Nc1cccc2c1CN(C1CCC(=O)NC1=O)C2=O (stereo not drawn) [Lenalidomide]	0.736	0.190	
CN1CCN(c2nc(C3=C(c4c[nH]c5ccccc45)C(=O)NC3=O)c3ccccc3n2)CC1 [Sotrastaurin]	0.896	0.775	
Cc1cc(-c2nc(C(=O)Nc3cc4oc(N5CCOCC5)nc4nc3N3CC[C@@H](O)C3)co2)ccn1 [CA-4948]	0.905	0.846	
C=CC(=O)N1CCC([C@@H]2CCNc3c(C(N)=O)c(-c4ccc(Oc5ccccc5)cc4)nn32)CC1 [Zanubrutinib]			Combination index (CI) value, median [3]: 0.811; Combination index (CI) value, median (Human MCL cell line): 0.75
NC(=O)c1cnc(N[C@@H]2CCCC[C@@H]2N)nc1Nc1cccc(-n2nccn2)c1 [PRT062607]	0.630	0.820	
COc1cccc2c1C(=O)c1c(O)c3c(c(O)c1C2=O)C[C@@](O)(C(=O)CO)C[C@@H]3O[C@H]1C[C@H](N)[C@H](O)[C@H](C)O1 [Doxorubicin]	0.953	0.932	
C=C(c1ccc(C(=O)O)cc1)c1cc2c(cc1C)C(C)(C)CCC2(C)C [Bexarotene]		0.276	
CC#CC(=O)N1CC[C@@H](n2c(=O)n(-c3ccc(Oc4ccccc4)cc3)c3c(N)ncnc32)C1 [Tirabrutinib]			Combination index (CI) value, median [3]: 0.761; Combination index (CI) value, median (Human MCL cell line): 0.822
O=C(CCCCCCC(=O)Nc1ccccc1)NO [Vorinostat]	0.930	0.866	
CC(=O)c1c(C)c2cnc(Nc3ccc(N4CCNCC4)cn3)nc2n(C2CCCC2)c1=O [Palbociclib]	0.658	0.443	
CO[C@@H](C)c1c(NC(=O)Nc2cnc(-n3nccn3)c(C(F)(F)F)c2)cnc2ccc(Cl)nc12 [Compound A, (S)—N-(6-chloro-4-(1-methoxyethyl)-1,5-naphthyridin-3-yl)-N′-(6-(2H-1,2,3-triazol-2-yl)-5-(trifluoromethyl)pyridin-3-yl)urea]			T/C (%) [4]: 49.8%
CC1(C)CCC(CN2CCN(c3ccc(C(=O)NS(=O)(=O)c4ccc(NCC5CCOCC5)c([N+](=O)[O-])c4)c(Oc4cnc5[nH]ccc5c4)c3)CC2)=C(c2ccc(Cl)cc2)C1 [Venetoclax]			Combination index (CI) value, median [5]: 0.5995; Combination index (CI) value, median [3]: 0.5985; Combination index (CI) value, median (Human MCL cell line): 0.372
C[C@]12C=CC(=O)C=C1CC[C@@H]1[C@@H]2[C@@H](O)C[C@@]2(C)[C@H]1CC[C@]2(O)C(=O)CO [Prednisolone]	0.168	0.854	
Irinotecan (SN-38)	0.993	0.903	
CS(=O)(=O)N1CCN(Cc2cc3nc(-c4cccc5[nH]ncc45)nc(N4CCOCC4)c3s2)CC1 [GDC-0941]	0.873	0.694	
CC[C@H](Nc1ncnc2[nH]cnc12)c1nc2cccc(F)c2c(=O)n1-c1ccccc1 [Idelalisib]	0.528	0.457	
CN1CCC(c2ccccc2CC(C)(C)Nc2nc(N3CCOCC3)nc(-n3c(C(F)F)nc4ccccc43)n2)CC1 [Zandelisib]	0.494	0.698	
CC(=O)Nc1cccc(-n2c(=O)n(C3CC3)c(=O)c3c(Nc4ccc(I)cc4F)n(C)c(=O)c(C)c32)c1 [Trametinib]	0.218	0.971	
CC#CC(=O)N1CCC[C@H]1c1nc(-c2ccc(C(=O)Nc3ccccn3)cc2)c2c(N)nccn12 [Acarabrutinib]			Combination index (CI) value, median [3]: 0.839; Combination index (CI) value, median (Human MCL cell line): 0.956
Cn1cc(C2=C(c3cn(C4CCN(Cc5ccccn5)CC4)c4ccccc34)C(=O)NC2=O)c2ccccc21 [Enzastaurin]	0.854	0.842	
NC1(c2ccc(-c3nc4ccn5c(=O)[nH]nc5c4cc3-c3ccccc3)cc2)CCC1 [MK-2206]	0.626	0.915	
CO[C@H]1C[C@@H]2CC[C@@H](C)[C@@](O)(O2)C(=O)C(=O)N2CCCC[C@H]2C(=O)O[C@H]([C@H](C)C[C@@H]2CC[C@@H](OCCO)[C@H](OC)C2)CC(=O)[C@H](C)/C=C(\C)[C@@H](O)[C@@H](OC)C(=O)[C@H](C)C[C@H](C)/C=C/C=C/C=C/1C [Everolimus]	0.464	0.225	
C=CC(=O)N1CCC[C@@H](n2nc(-c3ccc(Oc4ccccc4)cc3)c3c(N)ncnc32)C1 [Ibrutinib]			combination index (CI), median [6]: 0.504; combination index (CI), median ([7]; cell line 1, 6 days of culture): 0.629; median of CI ([7]; in each cell line (cell lines 1 and 2), synergistic effect): less than 1; T/C (%) [4]: 63.1%
Nc1cc(F)ccc1NC(=O)c1ccc(CNC(=O)/C=C/c2cccnc2)cc1 [Tucidinostat]	0.756	0.668	
Nc1cc(C(F)(F)F)c(-c2cc(N3CCOCC3)nc(N3CCOCC3)n2)cn1 [BKM120]	0.729		
COc1ccc(F)cc1C(=O)NCc1ccc(-c2nn([C@@H](C)C(F)(F)F)c(N)c2C(N)=O)cc1 [LOXO-305]			Combination index (CI) value, median [3]: 0.764; Combination index (CI) value, median (Human MCL cell line): 0.646
O=C(c1ccc(Oc2ccccc2)cc1Cl)c1c[nH]c2ncnc(N[C@@H]3CC[C@@H](CO)OC3)c12 [ARQ-531]			Combination index (CI) value, median [3]: 0.701; Combination index (CI) value, median (Human MCL cell line): 0.928
